Experimental data as given in patent EP3102204B1 (The University Of Mississippi, priority 2014, dated 2015).
Like-named read-outs stand apart in the source and are kept apart here.

How the values were obtained:
σ-2 = biological target: T1, σ-2 (Rattus norvegicus, UniProt Q5U3Y7); experiment: σ receptor assay: σ-2 binding with [3H]DTG plus (+)-pentazocine; details: for Ki: rat brain homogenates
T1 construct: from tissue; host or cells: rat brain homogenate (membrane protein)
T1 sequence (Q5U3Y7 1-176): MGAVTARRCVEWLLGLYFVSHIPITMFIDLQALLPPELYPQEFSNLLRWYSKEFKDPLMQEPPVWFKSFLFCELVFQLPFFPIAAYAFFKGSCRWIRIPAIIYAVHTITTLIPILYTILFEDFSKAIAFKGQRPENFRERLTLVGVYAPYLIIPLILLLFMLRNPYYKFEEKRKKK
Description: (§3) Compounds were evaluated for σ -1 and σ -2 binding in rat brain homogenates. […] The assays were terminated with ice-cold 10 mM Tris-HCl, pH 8.0, followed by two washes through glass fiber filters that were pre-soaked for at least 30 min in 0.5% polyethyleneimine.

σ-1 receptor [1] = details: cited from earlier work
σ-1 receptor [2] = experiment: Cell uptake studies in transfected CHO cells; details: at 120 min
Description: Control CHO cells (transfected with a vector not containing the σ-1 receptor gene - to serve as a negative control) and CHO cells transfected with a vector containing σ-1 receptor cDNA (to serve as a positive control for σ-1 receptor expression in cells) were used for the uptake assays. […] The incubated cells were subsequently washed, lysed and counted for radioactivity. All collected data were normalized for amount of protein present in each well.
Cells CHO cells were grown in Ham's F-12 medium. For uptake studies CHO cells were transfected using Lipofectamine 2000 (Invitrogen, Carlsbad, CA, USA) and either pcDNA (empty vector, negative control) or σ-1 receptor gene (OPRS1, accession number NM_005866.2, origin, Rockville, MD, USA) following manufacturer's directions. […] Twenty-four hours later, CHO cells were transfected with either 0.8 µg pcDNA (empty vector, control), or 0.8 µg sigma-1 DNA. […] A portion of each lysate (250 µL) was transferred to a glass tube and activity was measured with a Cobra II γ counter (Packard-Perkin Elmer, Waltham, MA, USA). Protein content from each well was measured by Bradford assay. The same protocol was followed for (+)-[^3H]pentazocine, except the activity was measured with a liquid scintillation counter (Beckman Coulter LS 6500, Brea, CA, USA).

Male, Swiss Webster mice [3] = experiment: Cocaine-induced locomotor activity; format: in vivo; details: pretreatment i.p. 15 min before cocaine 20 mg/kg i.p.
Description: Male, Swiss Webster mice were acclimated to the treatment room and then to the chambers of the automated activity monitoring system (San Diego Instruments, San Diego, CA). […] The total locomotor activity (ambulatory, fine and rearing movements) of the mice was recorded for the next 30 min as the number of disruptions made by them in the 16x16 photobeam grid of their testing chamber.

Male, Swiss Webster mice [4] = experiment: Methamphetamine-induced dopamine depletions; format: in vivo; details: methamphetamine 5 mg/kg x 4 at 2 hr intervals; striatal dopamine one week later
Description: Male, Swiss Webster mice were injected (i.p.) with saline or compound (0-20mg/kg), followed 15 min later with either saline (- METH) or methamphetamine (5mg/kg) at 2hr intervals, a total of four times. Striatal dopamine levels were measured one week later.

dopamine transporters = experiment: Non-σ competition binding assay, [3H]WIN35,428; details: rat brain homogenates; read-out: DAT Ki
Description: (§1) Compounds were tested at various non-σ target sites to evaluate selectivity because cocaine interacts with these sites (dopamine, serotonin and norepinephrine transporters) or historic "sigma" ligands interact with them (opioid, NMDA, dopamine D2, 5-HT2 receptors). The compounds were tested in competition binding assays using rat brain homogenates as previously published. […] The results were reported as Ki in nM.

NMDA receptors = experiment: Non-σ competition binding assay, [3H]TCP; details: rat brain homogenates
Description: as §1

Male, Swiss Webster mice [5] = experiment: Methamphetamine-induced locomotor activity; format: in vivo; details: pretreatment i.p. 15 min before methamphetamine 1 mg/kg i.p.
Description: (§2) Male, Swiss Webster mice were acclimated as detailed above. […] The total locomotor activity (ambulatory, fine and rearing movements) of the mice was recorded for the next 30 min as the number of disruptions made by them in the 16x16 photobeam grids surrounding their testing chambers.

Male, Swiss Webster mice [6] = experiment: Expression of cocaine-induced sensitization; format: in vivo; details: compound on Day 15 before cocaine 10 mg/kg i.p.
Description: Male, Swiss Webster mice were acclimated as detailed above. For five consecutive days (Days 1-5), the mice were pretreated (i.p.) with saline, then challenged 15 min later with cocaine (10mg/kg, i.p.). The total locomotor activity (ambulatory, fine and rearing movements) of the mice was recorded for the next 30 min. A 10 day drug free period followed and on Day 15, the mice were administered saline (i.p.) or compound (0.1-20mg/kg), followed15 min later with cocaine (10mg/kg, i.p.). Locomotor activity was then recorded for the next 30 min.

dopamine D2 receptors = biological target: T2, dopamine D2 receptors (Rattus norvegicus, UniProt P61169); experiment: Non-σ competition binding assay, [3H](-)-sulpiride; details: rat brain homogenates
T2 construct: from tissue; host or cells: rat brain homogenate
Description: as §1

[7] = biological target: norepinephrine transporters; experiment: Non-σ competition binding assay, [3H]nisoxetine; details: rat brain homogenates; read-out: NET Ki
Description: as §1

Male, Swiss Webster mice [8] = experiment: Cocaine-induced convulsions; format: in vivo; details: pretreatment i.p. 15 min before cocaine 70 mg/kg i.p.
5-HT2 receptors = experiment: Non-σ competition binding assay, [3H]ketanserin; details: rat brain homogenates
Description: as §1

serotonin transporters = experiment: Non-σ competition binding assay, [3H]paroxetine; details: rat brain homogenates; read-out: SERT Ki
Description: as §1

in vitro [9] = format: in vitro ADME, rat
Description: Metabolic stability of AZ_66 (1µM) was performed in Ammonium acetate buffer (50mM, pH 7.4) with Rat liver microsomes (0.5mg) at 37 °C in 0.5ml of incubation mixture. The incubation mixture composed of Ammonium acetate buffer (50mM, pH 7.4), Magnesium chloride (3mM), a NADPH regenerating system consisting of NADP (1mM), glucose-6-phosphate (5mM), and glucose-6-phosphate dehydrogenase (1Unit/mL). The Substrate and microsomes were pre incubated at 37°C for 5 min before starting the reaction. The reactions were started by the addition of regenerating system and carried out at 37°C in a shaking water bath for 60min. The incubations were stopped by adding an equal volume of ice cold acetonitrile at predetermined time points (0, 5, 15, 30, 60 min). The samples were centrifuged for 10min at 4°C and the supernatant was injected into UPLC/MS/MS. Control incubation without NADPH was also performed and these served as 100% value. All microsomal incubations were conducted using the same lot of microsomes.
In vitro half-life and CLint: The percent of the parent compound remaining is plotted versus time. The slope of the line gives the rate constant k for the disappearance of parent compound, from which an in vitro t1/2 can be calculated. CLint can be calculated using the following formula CLint = k(min^−1) × ([V](L))/([P](mg)) = (L/mg×min) [formula] […]

[10] = analytical reverse-phase HPLC
σ-1 receptors [11] = biological target: σ-1 receptors (Mus musculus, UniProt O55242); experiment: Small-animal PET imaging in mice (brain); format: in vivo
in vitro [12] = format: in vitro ADME; parameters: dose or concentration left out as unconfirmed; details: pH 7.4; mouse liver microsomes, NADPH-generating system, 37 °C
Description: The reaction was initiated by adding cofactors and quenched at designated time points (0, 5, 10, 15, 30, 45, 60 min) by the addition of an equal volume of ice-cold acetonitrile (ACN). […].
The basic incubation mixture consisted of 5 mM substrate, 1 mg/mL microsomal protein, 3 mM MgCl2, 1 mM NADP, 5 mM glucose-6-phosphate, 1 IU/mL glucose-6-phosphate dehydrogenase, 100 mM Tris HCl buffer (pH 7.4) in a final volume of 1 mL. The reaction was initiated by adding cofactors and quenched at designated time points (0, 5, 10, 15, 30, 45, 60 min) by addition of an equal volume of ice-cold ACN. The mixture was centrifuged at 3000 rpm for 10 min, and the supernatant was analyzed by UPLC/MS/MS.

σ-1 receptors [13] = experiment: In vitro radioligand binding assays of CM304 at sigma receptors; parameters: species or system rat
Description: Competition binding assays were performed as previously described. Briefly, radioligands were used to tag the targeted sites under standard conditions.

[14] = pKa by potentiometric titration; format: physicochemical
Description: A solution of 0.01 M sodium hydroxide was prepared and the pH measured as 11.9. Similarly, 0.01 M hydrochloric acid solution was prepared and the pH measured as 2.07. […] To the same sample, 0.1 mL portions of hydrochloric acid were added and pH recorded until it became constant. A titration curve was then plotted as pH versus the volume of base/acid added.

Male, Swiss Webster mice [15] = experiment: Development of cocaine-induced sensitization; format: in vivo; details: pretreatment Days 1-5, cocaine 10 mg/kg i.p.
Description: as §2, with “of” for “surrounding”, “chamber on each of the five days. A 10 day drug-free period followed. On Day 15, all of the mice were pre-administered (i.p.) saline followed by cocaine (10mg/kg, i.p.), and locomotor activity quantified for the next 30 min.” for “chambers.”

σ-1 = σ-1 (Rattus norvegicus, UniProt Q9R0C9); experiment: σ receptor assay: σ-1 binding with [3H](+)-pentazocine; details: rat brain homogenates; CM table
Chain of σ-1 (Q9R0C9 whole entry): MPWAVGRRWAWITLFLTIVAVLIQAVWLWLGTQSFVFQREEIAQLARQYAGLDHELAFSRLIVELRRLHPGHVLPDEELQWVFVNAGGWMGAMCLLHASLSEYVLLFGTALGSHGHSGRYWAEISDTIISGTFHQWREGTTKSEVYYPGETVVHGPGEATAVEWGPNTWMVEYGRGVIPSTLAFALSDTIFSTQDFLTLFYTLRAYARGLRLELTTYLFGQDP
Description: as §3

Chain of σ-1 receptors (Mus musculus, UniProt O55242) (O55242 whole entry): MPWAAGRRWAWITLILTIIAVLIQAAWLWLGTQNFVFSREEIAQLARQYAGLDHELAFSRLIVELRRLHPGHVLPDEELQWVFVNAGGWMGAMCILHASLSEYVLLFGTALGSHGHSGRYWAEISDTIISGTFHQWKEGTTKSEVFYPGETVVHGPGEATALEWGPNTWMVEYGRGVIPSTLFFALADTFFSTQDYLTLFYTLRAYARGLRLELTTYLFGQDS
T2 sequence (P61169 whole entry): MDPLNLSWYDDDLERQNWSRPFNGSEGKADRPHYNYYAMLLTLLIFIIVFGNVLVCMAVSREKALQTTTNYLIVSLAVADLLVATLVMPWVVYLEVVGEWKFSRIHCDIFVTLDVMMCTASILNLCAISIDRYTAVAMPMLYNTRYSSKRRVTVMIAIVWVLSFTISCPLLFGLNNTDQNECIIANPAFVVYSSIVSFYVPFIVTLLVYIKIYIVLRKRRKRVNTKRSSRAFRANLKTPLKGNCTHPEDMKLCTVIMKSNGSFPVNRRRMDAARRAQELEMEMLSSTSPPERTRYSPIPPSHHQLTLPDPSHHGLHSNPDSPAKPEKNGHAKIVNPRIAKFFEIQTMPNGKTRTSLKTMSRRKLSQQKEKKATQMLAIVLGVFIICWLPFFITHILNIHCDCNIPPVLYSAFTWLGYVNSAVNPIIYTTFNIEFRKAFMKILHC

## O=c1oc2ccccc2n1CCCCN1CCN(C2CCCCC2)CC1 [CM 121]
σ-2; σ-2 over σ-1
  preference (selectivity) for the σ-2 subtype: six fold

## [17F]CCC1OC2(CCN(Cc3ccccc3)CC2)c2ccccc21 (stereo not shown) [[^18F]fluspidine]
σ-1 receptor [1]; at 60 minutes post injection
  brain level relative to its maximum: 81%
σ-1 receptor [1]; biodistribution in mice, over 2 hours
  reduction in brain uptake: 40%
σ-1 receptor [1]; post injection
  time of maximum uptake in the brain: 30 min

## O=c1sc2ccccc2n1CCCCN1CCN(C2CCCCC2)CC1 [CM 145]
σ-2; CM table, read-out: Ki (nM) […]2
  Ki: 0.39 ± 0.06 nM

## CC(C)=CCN1CC[C@]2(C)c3cc(O)ccc3C[C@H]1[C@H]2C [(+)-[^3H] pentazocine, reference compound]
σ-1 receptor [2]
  uptake in cells transfected with σ-1 receptor cDNA versus control CHO cells: 3.6 fold

## S=c1sc2ccccc2n1CCCCN1CCN(C2CCCCC2)CC1 [CM156]
Male, Swiss Webster mice [3]
  attenuation of cocaine-induced locomotor activity: significant attenuation
Male, Swiss Webster mice [4]
  neurotoxic effects resulting from methamphetamine exposures (dopamine depletions): attenuated
Dopamine transporters
  Ki: 1175 ± 10 nM
NMDA receptors
  Ki: > 10000 nM
Male, Swiss Webster mice [5]
  locomotor stimulant effects of methamphetamine: attenuated
Male, Swiss Webster mice [6]
  expression of cocaine-induced sensitization (behavioral sensitization): significant attenuation
Dopamine D2 receptors
  Ki: 1041 ± 9 nM
[7]
  Ki: > 10000 nM
Male, Swiss Webster mice [8]
  attenuation of cocaine-induced convulsions: significant attenuation
5-HT2 receptors
  Ki: 1330 ± 159 nM
Serotonin transporters
  Ki: 1400 ± 152 nM

## c1ccc2c(c1)ccn2CCCCN1CCN(C2CCCCC2)CC1 [CM 341]
σ-2; CM table, read-out: Ki (nM) […]2
  Ki: 1.9 ± 0.16 nM

## CC(CCCn1c(=O)sc2cc(F)ccc21)N1CCN(C2CCCCC2)CC1 (stereo not shown) [AZ_66]
In vitro [9]; control incubation without NADPH
  loss of substrate in the absence of cofactor: no loss of substrate
In vitro [9]; rat, microsomes, pH 7.4, by 60 min, read-out: added substrate metabolized by microsomes
  metabolised at 1 h, 1 µM: ~25%

## O=c1sc2cc(CCC[18F])ccc2n1CCN1CCCCCC1 [[^18F]FTC-146, 6-(3-fluoropropyl) -3-(2-(azapan-1-yl)ethyl) benzo [d] thiazol-2 (3H) -one]
[10]
  stability of formulated version in saline/ethanol (9:1): at least 5.5 hours
σ-1 receptors [11]; at 60 min, pre-treatment with CM304 1 mg/kg 10 minutes prior to radioligand
  reduction of [18F]FTC-146 binding in the brain: 83%
σ-1 receptors [11]; mouse, brain, iv, read-out: maximum uptake in brain
  tissue uptake: ~17 %ID/g
σ-1 receptor [2]
  uptake in cells transfected with σ-1 receptor cDNA versus control CHO cells: 4 fold

## Cl.O=c1sc2cc(CCCF)ccc2n1CCN1CCCCCC1 [CM304, 3-(2-(azepan-1-yl)ethyl)-6-(3-fluoropropyl)benzo[d]thiazol-2(3H)-one hydrochloride]
In vitro [12]
  half-life: 4.2 min
σ-1 receptors [13]
  Ki: 0.0025 nM
[14]
  experimental pKa: 10.4
Male, Swiss Webster mice [8]
  attenuation of cocaine-induced convulsions: significantly attenuated

## CC(=O)c1ccc2c(c1)oc(=O)n2CCCCN1CCN(c2ccc(F)cc2)CC1 [SN-79]
Male, Swiss Webster mice [3]
  attenuation of cocaine-induced locomotor activity: significant attenuation
σ-2; SN table, read-out: Ki (nM) σ2
  Ki: 6.06 nM
Male, Swiss Webster mice [6]
  expression of cocaine-induced sensitization (behavioral sensitization): attenuates the expression of cocaine-induced sensitization
Male, Swiss Webster mice [8]
  attenuation of cocaine-induced convulsions: significant attenuation
Male, Swiss Webster mice [15]
  development of cocaine-induced sensitization: attenuates the development of cocaine-induced sensitization

## Fc1ccc(-c2cn(CCCCN3CCN(c4ccc(F)cc4)CC3)c3ccccc23)cc1 [CM 350]
σ-1
  Ki: 1200 ± 73.9 nM

## Cn1c(=O)n(CCCCN2CCN(C3CCCCC3)CC2)c2ccccc21 [CM 396]
σ-2; CM table, read-out: Ki (nM) […]2
  Ki: 2.57 ± 0.47 nM

## Fc1ccc(-c2cn(CCCCN3CCN(C4CCCCC4)CC3)c3ccccc23)cc1 [CM 349]
σ-2; CM table, read-out: Ki (nM) […]2
  Ki: 22.6 ± 1.13 nM
σ-1
  Ki: 90.9 ± 12.3 nM
